Here are results for 32 compounds from patent US10913727B2, “Modulators of the integrated stress pathway” (Calico Life Sciences LLC, priority 2016, dated 2021).

Each structure is given as a SMILES string.

This test relates to HEK293T cells carrying the ATF4 luciferase reporter. Description: ATF4-Luc assay, in vitro model of Vanishing Cell White Matter Disease (VWMD). To be noted: Homo sapiens, HEK-293T, 1 μg/mL tunicamycin, 7 hours, One Glo luminescence. The format is cell-based. In outline: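 Stable HEK293T line with human ATF4 5′-UTR–firefly luciferase reporter treated with 1 μg/mL tunicamycin plus 200 nM compound for 7 h. Luminescence read; EC50 derived.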
With `Cc1cc2c(C(=O)NC34CC(NC(=O)COc5ccc(Cl)c(Cl)c5)(C3)C4)nccn2n1` [Compound 562, N-{3-[2-(3,4-dichlorophenoxy)acetamido]bicyclo[1.1.1]pentan-1-yl}-2-methylpyrazolo[1,5-a]pyrazine-4-carboxamide], the EC50 lay within 250 to 1000 nM.

On to `O=C(COc1ccc(Cl)c(Cl)c1)NC12CC(NC(=O)c3cccc(CO)n3)(C1)C2` [Compound 165, N-{3-[2-(3,4-dichlorophenoxy)acetamido]bicyclo[1.1.1]pentan-1-yl}-6-(hydroxymethyl)pyridine-2-carboxamide], for which the EC50 was over 2000 nM. As to `CCCCc1ccc(C(=O)NC23CC(NC(=O)COc4ccc(Cl)c(F)c4)(C2)C3)nc1` [Compound 135, 5-butyl-N-{3-[2-(4-chloro-3-fluorophenoxy)acetamido]bicyclo[1.1.1]pentan-1-yl}pyridine-2-carboxamide], the EC50 is 50 to 250 nM.

Take `Cn1nc(C(=O)NC23CCC(NC(=O)COc4ccc(Cl)c(F)c4)(CC2)C(O)C3)cc1C(F)(F)F` (centres unmarked) [Compound 565, N-{4-[2-(4-chloro-3-fluorophenoxy)acetamido]-3-hydroxybicyclo[2.2.2]octan-1-yl}-1-methyl-5-(trifluoromethyl)-1H-pyrazole-3-carboxamide]: the EC50 was 50 to 250 nM. Regarding `CC(C)(C)c1cnc(C(=O)NC23CCC(NC(=O)COc4ccc(Cl)c(F)c4)(CC2)[C@@H](O)C3)cn1` [Compound 705, 5-tert-butyl-N-{(3S)-4-[2-(4-chloro-3-fluorophenoxy)acetamido]-3-hydroxybicyclo[2.2.2]octan-1-yl}pyrazine-2-carboxamide], the EC50 is over 2000 nM.

In the case of `O=C(COc1ccc(Cl)c(F)c1)NC12CC(NC(=O)c3ccc(OC(F)(F)F)cc3)(C1)C2` [Compound 321, N-{3-[2-(4-chloro-3-fluorophenoxy)acetamido]bicyclo[1.1.1]pentan-1-yl}-4-(trifluoromethoxy)benzamide], the EC50 lay within 50 to 250 nM.

With `O=C(COc1ccc(Cl)c(Cl)c1)NC12CC(NC(=O)c3ccc(C(F)F)nc3)(C1)C2` [Compound 927, N-{3-[2-(3,4-dichlorophenoxy)acetamido]bicyclo[1.1.1]pentan-1-yl}-6-(difluoromethyl)pyridine-3-carboxamide], the EC50 fell in the range of 50 to 250 nM. Take `CC(C)c1ccc(C(=O)NC23CC(NC(=O)COc4ccc(Cl)c(F)c4)(C2)C3)cn1` [Compound 642, N-{3-[2-(4-chloro-3-fluorophenoxy)acetamido]bicyclo[1.1.1]pentan-1-yl}-6-(propan-2-yl)pyridine-3-carboxamide]: the EC50 was in the range of 1000 to 2000 nM. Take `Cc1ccc(C(=O)NC23CCC(NC(=O)COc4ccc(Cl)c(F)c4)(CC2)CC3O)cn1` (centres unmarked) [Compound 228, N-{4-[2-(4-chloro-3-fluorophenoxy)acetamido]-2-hydroxybicyclo[2.2.2]octan-1-yl}-6-methylpyridine-3-carboxamide]: the concentration for a half-maximal effect (EC50) is over 2000 nM. Regarding `O=C(COc1ccc(Cl)c(F)c1)NC12CC(NC(=O)c3ncc4ccccc4n3)(C1)C2` [Compound 749, N-{3-[2-(4-chloro-3-fluorophenoxy)acetamido]bicyclo[1.1.1]pentan-1-yl}quinazoline-2-carboxamide], the EC50 fell in the range of 50 to 250 nM. On to `O=C(COc1ccc(Cl)c(Cl)c1)NC12CC(NC(=O)c3ccc(CO)nc3)(C1)C2` [Compound 719, N-{3-[2-(3,4-dichlorophenoxy)acetamido]bicyclo[1.1.1]pentan-1-yl}-6-(hydroxymethyl)pyridine-3-carboxamide], for which the EC50 lay in the range of 1000 to 2000 nM. As to `O=C(COc1ccc(Cl)c(F)c1)NC12CC(NC(=O)c3ccccn3)(C1)C2` [Compound 129, N-{3-[2-(4-chloro-3-fluorophenoxy)acetamido]bicyclo[1.1.1]pentan-1-yl}pyridine-2-carboxamide], the EC50 fell in the range of 50 to 250 nM. The value for `O=C(COc1ccc(Cl)c(F)c1)NC12CCC(NC(=O)c3coc4c3C(=O)CCC4)(CC1)C(O)C2` (centres unmarked) [Compound 222, N-{4-[2-(4-chloro-3-fluorophenoxy)acetamido]-2-hydroxybicyclo[2.2.2]octan-1-yl}-4-oxo-4,5,6,7-tetrahydro-1-benzofuran-3-carboxamide] was over 2000 nM. The value for `CN(C)c1ccccc1C(=O)NC12CC(NC(=O)COc3ccc(Cl)c(F)c3)(C1)C2` [Compound 532, N-{3-[2-(4-chloro-3-fluorophenoxy)acetamido]bicyclo[1.1.1]pentan-1-yl}-2-(dimethylamino)benzamide] was over 2000 nM; that for `O=C(COc1ccc(Cl)c(F)c1)NC12CC(NC(=O)c3ccc4c(c3)OC(F)(F)O4)(C1)C2` [Compound 234, N-{3-[2-(4-chloro-3-fluorophenoxy)acetamido]bicyclo[1.1.1]pentan-1-yl}-2,2-difluoro-2H-1,3-benzodioxole-5-carboxamide] was under 50 nM. On to `O=C(COc1ccc(Cl)c(F)c1)NC12CC(NC(=O)c3cccc(-n4cnnc4)c3)(C1)C2` [Compound 902, N-{3-[2-(4-chloro-3-fluorophenoxy)acetamido]bicyclo[1.1.1]pentan-1-yl}-3-(4H-1,2,4-triazol-4-yl)benzamide], for which the EC50 was over 2000 nM.

Consider `O=C(COc1ccc(Cl)c(F)c1)NC12CC(Nc3nnc(-c4ccc(Cl)cc4)o3)(C1)C2` [Compound 421, 2-(4-chloro-3-fluorophenoxy)-N-(3-{[5-(4-chlorophenyl)-1,3,4-oxadiazol-2-yl]amino}bicyclo[1.1.1]pentan-1-yl)acetamide], for which the EC50 was 250 to 1000 nM.

In the case of `O=C(COc1ccc(Cl)c(F)c1)NC12CC(NC(=O)c3cn4ccsc4n3)(C1)C2` [Compound 799, N-{3-[2-(4-chloro-3-fluorophenoxy)acetamido]bicyclo[1.1.1]pentan-1-yl}imidazo[2,1-b][1,3]thiazole-6-carboxamide], the EC50 was over 2000 nM. The value for `COc1ccc(F)cc1C(=O)NC12CC(NC(=O)COc3ccc(Cl)c(F)c3)(C1)C2` [Compound 540, N-{3-[2-(4-chloro-3-fluorophenoxy)acetamido]bicyclo[1.1.1]pentan-1-yl}-5-fluoro-2-methoxybenzamide] was 250 to 1000 nM; that for `O=C(COc1ccc(Cl)c(F)c1)NC12CC(NC(=O)c3cnoc3C3CC3)(C1)C2` [Compound 900, N-{3-[2-(4-chloro-3-fluorophenoxy)acetamido]bicyclo[1.1.1]pentan-1-yl}-5-cyclopropyl-1,2-oxazole-4-carboxamide] was over 2000 nM. As to `O=C(COc1ccc(Cl)c(F)c1)NC12CC(NC(=O)c3cnc(O)cn3)(C1)C2` [Compound 184, N-{3-[2-(4-chloro-3-fluorophenoxy)acetamido]bicyclo[1.1.1]pentan-1-yl}-5-hydroxypyrazine-2-carboxamide], the EC50 was over 2000 nM.

On to `O=C(COc1ccc(Cl)c(F)c1)NC12CC(NC(=O)c3ccccc3Cn3cccn3)(C1)C2` [Compound 890, N-{3-[2-(4-chloro-3-fluorophenoxy)acetamido]bicyclo[1.1.1]pentan-1-yl}-2-[(1H-pyrazol-1-yl)methyl]benzamide], for which the EC50 was over 2000 nM. The value for `O=C(COc1ccc(Cl)c(F)c1)NC12CC(NC(=O)c3ccc(OC(F)F)nc3)(C1)C2` [Compound 440, N-{3-[2-(4-chloro-3-fluorophenoxy)acetamido]bicyclo[1.1.1]pentan-1-yl}-6-(difluoromethoxy)pyridine-3-carboxamide] was 50 to 250 nM. For `O=C1COc2cc(C(=O)NC34CC(NC(=O)COc5ccc(Cl)c(F)c5)(C3)C4)ccc2N1` [Compound 794, N-{3-[2-(4-chloro-3-fluorophenoxy)acetamido]bicyclo[1.1.1]pentan-1-yl}-3-oxo-3,4-dihydro-2H-1,4-benzoxazine-7-carboxamide], the EC50 is over 2000 nM. The value for `O=C(COc1ccc(Cl)c(F)c1)NC12CCC(NC(=O)c3cc(O)no3)(CC1)CC2O` (centres unmarked) [Compound 411, N-{4-[2-(4-chloro-3-fluorophenoxy)acetamido]-3-hydroxybicyclo[2.2.2]octan-1-yl}-3-hydroxy-1,2-oxazole-5-carboxamide] was over 2000 nM; that for `Cc1cc(C(=O)NC23CC(NC(=O)COc4ccc(Cl)c(Cl)c4)(C2)C3)sn1` [Compound 617, N-{3-[2-(3,4-dichlorophenoxy)acetamido]bicyclo[1.1.1]pentan-1-yl}-3-methyl-1,2-thiazole-5-carboxamide] was under 50 nM.

`Cc1ccoc1C(=O)NC12CC(NC(=O)COc3ccc(Cl)c(F)c3)(C1)C2` [Compound 545, N-{3-[2-(4-chloro-3-fluorophenoxy)acetamido]bicyclo[1.1.1]pentan-1-yl}-3-methylfuran-2-carboxamide]: the EC50 lay within 250 to 1000 nM. Consider `COc1cc(OC)cc(C(=O)NC23CC(NC(=O)COc4ccc(Cl)c(F)c4)(C2)C3)c1` [Compound 303, N-{3-[2-(4-chloro-3-fluorophenoxy)acetamido]bicyclo[1.1.1]pentan-1-yl}-3,5-dimethoxybenzamide], for which the EC50 is 1000 to 2000 nM. The value for `O=C(COc1ccc(Cl)c(F)c1)NC12CCC(NC(=O)c3cnc(C(F)F)cn3)(C1)C2` [Compound 296, N-{4-[2-(4-chloro-3-fluorophenoxy)acetamido]bicyclo[2.1.1]hexan-1-yl}-5-(difluoromethyl)pyrazine-2-carboxamide] was 50 to 250 nM; that for `Cc1cc(C(=O)NC23CC(NC(=O)COc4ccc(Cl)c(F)c4)(C2)C3)ns1` [Compound 677, N-{3-[2-(4-chloro-3-fluorophenoxy)acetamido]bicyclo[1.1.1]pentan-1-yl}-5-methyl-1,2-thiazole-3-carboxamide] was 250 to 1000 nM. For `O=C(COc1ccc2c(c1)OC(F)(F)O2)NC12CC(NC(=O)c3cccnc3)(C1)C2` [Compound 457, N-(3-{2-[(2,2-difluoro-2H-1,3-benzodioxol-5-yl)oxy]acetamido}bicyclo[1.1.1]pentan-1-yl)pyridine-3-carboxamide], the EC50 lay within 250 to 1000 nM. On to `O=C(COc1ccc(Cl)c(F)c1)NC12CC(NC(=O)c3cccc(C(F)(F)F)n3)(C1)C2` [Compound 781, N-{3-[2-(4-chloro-3-fluorophenoxy)acetamido]bicyclo[1.1.1]pentan-1-yl}-6-(trifluoromethyl)pyridine-2-carboxamide], for which the EC50 is over 2000 nM.

As a reminder, the EC50 is the concentration needed to bring the measured effect to its halfway point.
